Laboratory results reported in patent US20160038651A1, “COMPOUNDS AND COMPOSITIONS FOR DRUG RELEASE” (INTERFACE BIOLOGICS, INC., priority 2013, published 2016).
≈ marks a conversion by molar mass, not a printed value. Like-named read-outs stand apart in the source and are kept apart here. Values belong to the compound of their own block, whether it stands above or below them.

Key:
[1] = test system: S. aureus (ATCC 25923); assay: MIC & MBC determination, standard broth microdilution method; assay type: cell-based; conditions: for antimicrobial activity: broth microdilution, up to the highest concentration tested; for effect of the combination on the activity of CHX-A: tested in combination with CHX-A
Description: The antimicrobial efficacy of Compound 2 and drug released from Compound 2 was investigated using a standard broth microdilution method. The minimum inhibitory concentration (MIC) and minimum bactericidal concentration (MBC) were investigated for Compound 2, drug released from Compound 2, triethylene glycol (TEG), Ciprofloxacin hydrochloride (Cipro®HCl), chlorhexidine diacetate (CHX-A), and Compound 2+CHX-A. The MIC is defined as the lowest concentration of an antimicrobial agent that will inhibit visible growth of a microorganism after overnight incubation. The MBC is defined as the lowest concentration of an antimicrobial agent required to kill 99.9% of a microorganism population. This study was carried out using two gram positive bacteria, E. faecalis (ATCC 29212) and S. aureus (ATCC 25923), and two gram negative bacteria, E. coli (ATCC 25922) and P. aeruginosa (ATCC 27853). The test samples were prepared using 2-fold dilutions per well and covered a concentration range at least 2 dilutions above and 2 dilutions below literature MIC values for the microorganisms tested.
The antimicrobial efficacy of Compound 3 and drug released from Compound 3 investigated using a standard broth microdilution method. The MIC and MBC were investigated for Compound 3, drug released from Compound 3, TEG, Cipro®HCl, CHX-A, and Compound 3+CHX-A. This study was carried out using two gram positive bacteria, E. faecalis (ATCC 29212) and S. aureus (ATCC 25923), and two gram negative bacteria, E. coli (ATCC 25922) and P. aeruginosa (ATCC 27853). The test samples were prepared using 2-fold dilutions per well and covered a concentration range at least 2 dilutions above and 2 dilutions below literature MIC values for the microorganisms tested.

[2] = Drug release in solution (PBS pH 7.4, 37° C., RP-HPLC); assay type: physicochemical; conditions: 0.1 mg/ml in PBS pH 7.4, 37° C.
Method: Compound 2 was dissolved in PBS (pH 7.4) at 0.1 mg/ml and placed in incubator at 37° C. At each time point (0, 1, 3, 7, 14, 21, & 28 days), solution was removed from incubator and analyzed for the drug by RP-HPLC using established protocols (FIG. 6). […] The release profile of compound 2 was also evaluated in a device prototype assembly using bovine serum, blood (porcine) or a gel matrix.
Compound 3 was dissolved in PBS (pH 7.4) at 0.1 mg/ml and placed in incubator at 37° C. At each time point (0, 1, 3, 7, 14, 21, & 28 days), solution was removed from incubator and analyzed for drug by RP-HPLC using established protocols.

[3] = test system: New Zealand rabbits; assay: Intracutaneous Reactivity, ISO 10993-10: 2010; assay type: in vivo; conditions: 0.2 mL intracutaneous injections, scored after 24, 48, 72 h
Method: (§1) Compound 2 was dissolved in PBS (9.2×10 mg/mL) and tested for Intracutaneous Reactivity in accordance with ISO 10993-10: 2010 Standard, Biological Evaluation of Medical Devices, Part 10: Tests for Irritation and Skin Sensitization, Pages 11-14. Each rabbit received five sequential 0.2 mL intracutaneous injections along either side of the dorsal mid-line with the test article on one side and the control on the other. Three New Zealand rabbits were used per sample and control. The injection sites were observed and scored for erythema (redness) and edema (swelling) after 24, 48, and 72 h on a scale of 1 to 4.
as §1, with “Compound 3” for “Compound 2”, “PBS (5.4×10^−2” for “PBS (9.2×10”

[4] = test system: mice; assay: Acute Systemic Toxicity following ISO 10993-11; assay type: in vivo; conditions: single injection 50 mL/kg per mouse, observed to 72 h
Method: A single injection dose of 50 mL/kg per mouse (˜1 mL) was administered to 5 mice per test sample.

[5] = Accelerated drug release in acidic, basic or neutral conditions (RP-HPLC); assay type: physicochemical; conditions: 37° C.
Method: Compound 2 was prepared at 10 mg/ml in 0.1 N HCl (final pH ˜4), 0.1 N NaOH (final pH ˜10), and PBS (final pH ˜7). Samples were incubated at 37° C. in acidic, basic, or neutral conditions. At each time point, the drug concentration was quantified by RP-HPLC.

[6] = test system: S. aureus (ATCC 25923); conditions: cited from earlier work

Compound: O=C(OCCOCCOCCOC(=O)c1cn(C2CC2)c2cc(N3CCNCC3)c(F)cc2c1=O)c1cn(C2CC2)c2cc(N3CCNCC3)c(F)cc2c1=O [Compound 2]
- MBC Experimental ([1]; S. aureus, Table 4): >78 µg/mL
- MIC Experimental ([1]; S. aureus, Table 4): >78 µg/mL
- antimicrobial activity [1]: did not show any antimicrobial activity
- effect of the combination on the activity of CHX-A [1]: did not affect the activity of CHX-A
- total drug released ([2]; after 28 days): ~8%
- irritation (erythema and edema, Intracutaneous Reactivity) ([3]; in PBS 9.2×10 mg/mL): non-irritant
- signs of toxicity (Acute Systemic Toxicity) ([4]; in PBS 4×10^−5-9.7×10^−1 mg/mL, higher dosage): no signs of toxicity
- drug release ([5]; 10 mg/ml in 0.1 N HCl (final pH ~4), after 7 days): ~71%
- drug release ([5]; 10 mg/ml in 0.1 N NaOH (final pH ~10), in less than 1 day): 100%
- drug release ([5]; 10 mg/ml in PBS (final pH ~7), after 7 days): ~2%

Compound: Ciprofloxacin hydrochloride [Cipro*HCl]
- MBC Experimental ([1]; S. aureus, Table 4): 0.5 to 1 µg/mL
- MIC Experimental ([1]; S. aureus, Table 4): 0.25 to 0.5 µg/mL
- MBC Experimental ([1]; S. aureus, Table 5): 0.5 to 1 µg/mL
- MIC Experimental ([1]; S. aureus, Table 5, in µg/mL): 0.25-0.5
- MBC Literature ([6]; Table 4): 0.9 µg/mL
- MIC Literature ([6]; Table 4): 0.5 µg/mL
- MBC Literature ([6]; Table 5): 0.9 µg/mL
- MIC Literature ([6]; Table 5): 0.5 µg/mL

- MIC Experimental ([1]; S. aureus, Table 5, in µg/mL): 0.5
Compound: O=C(O)c1cn(C2CC2)c2cc(N3CCNCC3)c(F)cc2c1=O [Cipro Released from Compound 3]
- MBC Experimental ([1]; S. aureus, Table 5): 1 µg/mL (≈ 3.02 µM)
- antimicrobial activity [1]: antimicrobial activity consistent with both the Cipro®HCl controls and literature values

- MIC Experimental ([1]; S. aureus, Table 4): 1 µg/mL
- MIC Experimental ([1]; S. aureus, Table 5, in µg/mL): 1
Compound: CC(=O)O.CC(=O)O.NC(=N\CCCCCC/N=C(N)/N=C(\N)Nc1ccc(Cl)cc1)/N=C(\N)Nc1ccc(Cl)cc1 [CHX-A, chlorhexidine diacetate]
- MBC Experimental ([1]; S. aureus, Table 4): 1 to 4 µg/mL
- MBC Experimental ([1]; S. aureus, Table 5): 1 to 4 µg/mL
- MBC Literature ([6]; Table 4): 3.9 µg/mL
- MIC Literature ([6]; Table 4): 0.9 µg/mL
- MBC Literature ([6]; Table 5): 3.9 µg/mL
- MIC Literature ([6]; Table 5): 0.9 µg/mL

Compound: O=C(OCCOCCOCCO)c1cn(C2CC2)c2cc(N3CCNCC3)c(F)cc2c1=O [Compound 3]
- MBC Experimental ([1]; S. aureus, Table 5): >55.5 µg/mL
- MIC Experimental ([1]; S. aureus, Table 5, in µg/mL): >55.5
- antimicrobial activity [1]: did not show any antimicrobial activity
- effect of the combination on the activity of CHX-A [1]: did not affect the activity of CHX-A
- drug concentration with time (drug release) ([2]; out to at least 28 days): linear increase
- irritation (erythema and edema, Intracutaneous Reactivity) ([3]; in PBS 5.4×10^−2 mg/mL): non-irritant
- signs of toxicity (Acute Systemic Toxicity) ([4]; in PBS 8×10^−4-8×10^−2 mg/mL, all concentrations): no signs of toxicity

- MIC Experimental ([1]; S. aureus, Table 5, in µg/mL): >100
- MIC ([1]; Staphylococcus aureus, ATCC25923, S. aureus, Table 4, read-out: MIC Experimental): > 100 µg/mL
Compound: OCCOCCOCCO [TEG, triethylene glycol]
- MBC Experimental ([1]; S. aureus, Table 5): >100 µg/mL
- MBC ([1]; Staphylococcus aureus, ATCC25923, S. aureus, Table 4, read-out: MBC Experimental): > 100 µg/mL
- antimicrobial activity [1]: No antimicrobial activity
